Consider nine compounds from ChEMBL document CHEMBL1201862, “PubChem BioAssay data set” (2004).

Structures are written as SMILES.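 The compound was tested at five concentrations on cells cultured in 96-well plates, with a 48-hour exposure period. GI50 is the concentration that inhibits growth by half.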 The source made the active and inactive calls. No stated cut-off is given here; in the data, active = GI50 up to about 1.1 µM and inactive = higher.

Assay in all cases: NCI-60 cell line screen, 48 h
The subject of test [1] is CCRF-CEM.
The test system of test [2] is COLO 205.
The test system of test [3] is HCC 2998.
Test [4] deals with HCT-15.
The test system of test [5] is HOP-92.
For test [6], the system named is Hs-578T.
In test [7] the test system is K562.
The test system of test [8] is LOX IMVI.
The subject of test [9] is MDA-MB-231.
Test [10] deals with MOLT-4.
Test [11] deals with NCI-H23.
In test [12] the test system is OVCAR-4.
In test [13] the test system is OVCAR-5.
The subject of test [14] is SF-539.
Test [15] relates to SK-MEL-28.
Test [16] has as its system SR.
Test [17] deals with U-251.
In test [18] the test system is UACC-62.
Test [19] relates to A498.
For test [20], the system named is MDA-N.

Consider `CCCCCCc1cc2cc(-c3cn4c(n3)sc3ccccc34)c(=O)oc2cc1O`, for which the GI50 is > 100 µM (inactive) in test [1]; > 100 µM (inactive) in test [2]; > 100 µM (inactive) in test [3]; over 75.7 µM in test [4]; > 100 µM (inactive) in test [5]; > 25.1 µM (inactive) in test [6]. The GI50 in test [7] was > 100 µM (inactive); in test [8], > 100 µM (inactive); in test [9] it was > 100 µM (inactive); in [10], > 100 µM (inactive); in test [11] it was > 100 µM (inactive); in test [12], 3.98 µM (inactive). The GI50 in [13] was > 100 µM (inactive); in [14] it was > 100 µM (inactive); in test [15], 3.39 µM (inactive); in test [16], > 29.8 µM (inactive); in test [17], > 100 µM (inactive); in test [18] it was 2.36 µM (inactive).
Consider `N#CC1C[C@@H]2CC3(CCC2CN1C(=O)c1ccccc1)OCCO3` (stereo not given in full), for which the GI50 is > 100 µM (inactive) in [19]; > 100 µM (inactive) in test [1]; > 100 µM (inactive) in test [2]; > 100 µM (inactive) in [3]; over 100 µM in test [4]; > 100 µM (inactive) in [5]. Moreover, the GI50 in [7], in [8], in test [10], in test [11], in test [12] and in [13] was > 100 µM (inactive) in each case. Also, the GI50 in test [14] is > 100 µM (inactive); in test [15] it was > 100 µM (inactive); in test [16] it was 0.607 µM (active); in test [17], > 100 µM (inactive); in test [18] it was > 100 µM (inactive).
For the compound `CC1=C(C(=O)N(C)c2ccc(Cl)c(C(=O)OC(C)C)c2)SCCO1`, the GI50 in [19] was 74.3 µM (inactive); in test [1], > 100 µM (inactive); in [2], 70.8 µM (inactive); in test [3], > 100 µM (inactive); in test [4], 74 µM; in [5], > 100 µM (inactive). The GI50 in test [6] was > 100 µM (inactive); in [7], 29 µM (inactive); in [8], > 100 µM (inactive); in test [9] it was > 100 µM (inactive); in test [10], 38.5 µM (inactive); in test [11] it was 44.2 µM (inactive). The GI50 in [12] was 42.4 µM (inactive); in test [13], > 100 µM (inactive); in test [14], > 100 µM (inactive); in [15], > 100 µM (inactive); in [17], 92.3 µM (inactive); in [18], 53.1 µM (inactive).
Consider `CC(=O)N(N=O)c1ccc(N(N=O)C(C)=O)cc1`, for which the GI50 was > 100 µM (inactive) in [19]; > 100 µM (inactive) in test [1]; > 100 µM (inactive) in test [2]; > 100 µM (inactive) in test [3]; over 100 µM in test [4]; > 100 µM (inactive) in [5]. Further, the GI50 in [7], in [8], in test [10], in [11], in test [12] and in [13] was > 100 µM (inactive) in each case. In addition, the GI50 in [14], in test [15], in test [16], in test [17] and in [18] was > 100 µM (inactive) throughout.
In the case of `N#CCN1CCCCCc2ccccc21`, the GI50 in test [1] is > 100 µM (inactive); in test [2] it was > 100 µM (inactive); in test [3] it was > 100 µM (inactive); in test [4], over 100 µM; in test [5], > 100 µM (inactive); in test [6], > 100 µM (inactive). Moreover, the GI50 in [7], in [9], in test [10], in test [11], in [12] and in [13] was > 100 µM (inactive) in each case. Besides, the GI50 in test [14], in test [15], in test [16], in test [17] and in test [18] was > 100 µM (inactive) throughout.
`O=C(NN1C(=O)C=CC1=O)c1ccccc1Nc1ccccc1C(=O)NN1C(=O)C=CC1=O`: the GI50 in test [1] was > 100 µM (inactive); in [2] it was > 100 µM (inactive); in test [3], > 100 µM (inactive); in [4] it was over 100 µM; in test [5], > 100 µM (inactive); in test [7], > 100 µM (inactive). Moreover, the GI50 in [8], in test [9], in test [20], in test [10], in [11] and in [12] was > 100 µM (inactive) in each case. For the same compound, the GI50 in [13], in test [14], in [15], in test [16], in test [17] and in test [18] was > 100 µM (inactive) throughout.
Turning to `O=C1CCc2nc3ncccc3cc2C1`, the GI50 was > 100 µM (inactive) in [19]; 30.5 µM (inactive) in test [1]; > 100 µM (inactive) in test [2]; > 100 µM (inactive) in test [3]; 96.4 µM in test [4]; > 100 µM (inactive) in test [5]. Further, the GI50 was 29.2 µM (inactive) in [7]; > 100 µM (inactive) in test [9]; 63.5 µM (inactive) in test [20]; 29.9 µM (inactive) in [10]; > 100 µM (inactive) in test [11]; > 100 µM (inactive) in [12]. Further, the GI50 in test [13] and in test [15] was > 100 µM (inactive) throughout.
As to `COc1cc2cc3c4c(cc(OC)c(OC)c4c2cc1OC)CCN3C(=O)OCCN1CCNCC1`, the GI50 in test [19] is 14.6 µM (inactive); in [1], 18.4 µM (inactive); in test [2], 8.22 µM (inactive); in test [3], 16.1 µM (inactive); in test [4] it was 15.5 µM; in [5], 12.9 µM (inactive). For the same compound, the GI50 was 12.6 µM (inactive) in test [7]; 13.7 µM (inactive) in [8]; 16.1 µM (inactive) in [10]; 17.4 µM (inactive) in test [11]; 17.5 µM (inactive) in test [12]; 18 µM (inactive) in [13]. For the same compound, the GI50 in test [14] was 15.1 µM (inactive); in [15], 18.5 µM (inactive); in [16], 11.2 µM (inactive); in test [17], 15.3 µM (inactive); in [18] it was 14.9 µM (inactive).
As for `O=C1CCCCC/C1=C\c1cccc([N+](=O)[O-])c1`, the GI50 was > 100 µM (inactive) in test [19]; 12.2 µM (inactive) in test [1]; 51.1 µM (inactive) in test [2]; 21.2 µM (inactive) in test [3]; 31.9 µM (inactive) in test [7]; 23.8 µM (inactive) in test [9]. Further, the GI50 in test [20] is 53.7 µM (inactive); in test [10] it was 15.5 µM (inactive); in [13] it was 46.2 µM (inactive); in test [14], 21.5 µM (inactive); in test [15] it was 38.1 µM (inactive); in [16], 11.6 µM (inactive). Besides, the GI50 in test [17] was 27.4 µM (inactive); in test [18] it was 22.5 µM (inactive).
